Patent US20040266880A1, “Antipruritics” (priority 2002, published 2004)
Where a name gives a salt, the structure may show the parent alone.

Experiments:
Type in all cases: in vivo
[1] = tested on: NC/Nga mice manifesting atopic dermatitis; assay: Test Example 2: effect on the spontaneous, itch-evoked scratching behavior of NC mice (percent itch suppression); conditions: for % Inhibition (percent itch suppression): total 24-hr scratching counts before vs after, N = 8
Description: Twenty-week-old NC/Nga mice each weighing about 30 g and manifesting atopic dermatitis were purchased from SLC and subjected to the following experiment. A magnet was buried in both hind paws of each mouse and by detecting its magnetism, the movement of the paws was measured with an itch measuring system (product of Neuroscience). Among the scratching actions, those lasting 1.5 seconds or longer were considered itch-evoked and their number was counted continuously. […] Prostaglandin E2 (PGE2; Cayman Chemical), prostaglandin D2 (PGD2; Cayman Chemical), limaprost (synthetic), sulprostone (synthetic) and beraprost (synthetic) were used as drugs according to the present invention. The subsequent 24-hr itch-evoked scratching behavior was measured and the number of itch-evoked scratchings after drug application was compared with the initial count. The experimental data was processed to calculate the percent itch suppression on the basis of the total 24-hr itch-evoked scratching counts before and after drug application (Table 2). [formula]
For significance testing, the itch-evoked scratching counts that were obtained before and after drug application from individual animals in each group treated with a specific concentration of drug were processed by a paired t-test. Differences with a significance level of 0.5% or less were determined as “significant.”
The same test was repeated using 100% ethanol as a control and, as comparative drugs, dexamethasone (a steroid; Wako Pure Chemical Industries, Ltd.), tacrolimus (FK-506, an immunosuppressive; Fujisawa Pharmaceutical Co., Ltd.) and chlorpheniramine maleate (an antihistamine; Kongo Chemical Co., Ltd.) at the concentrations shown in Table 2 below, provided that chlorpheniramine maleate was administered orally.

[2] = tested on: dermatitis manifesting NC mice; assay: Test Example 3: effect on dermatitis manifesting NC mouse models (dermatitis score); conditions: 0.01% in 100% ethanol, 200 μl on dorsal back seven times a week for 4 weeks; FIGS. 1 and 2; P<0.05
Description: By suitably modifying a method known to the skilled artisan (Jpn. J. Pharmacol. 76, 175-183 (1998) Jun Hiroi, et al. Effects of Tacrolimus Hydrate (FK-506) Ointment on Spontaneous Dermatitis in NC/Nga Mice), the following test was conducted in order to confirm the antipruritic effect of prostaglandins. (Method) Animals: Four-week old SPF NC mice (male) were purchased from Japan SLC; right after their arrival, the SPF NC mice were kept together with dermatitis manifesting male NC mice (older than 20 weeks) for 2 weeks under the following conditions so as to induce itch-evoked scratching behavior. A group of mice manifesting dermatitis and another group of mice not manifesting dermatitis, each consisting of four animals, were allowed to cohabit in a sawdust cage (34×17×39 cm) and kept in an animal house set at room temperature (23±3° C.) and at a humidity of 55±15% under illumination for 12 hours (from 7:00 am to […]). After 2-wk cohabitation, the purchased mice were taken out of the cage and transferred into another cage, where a group of 8 animals were further kept for 14 weeks until the test. […] The mean value ± standard deviation was calculated from the dermatitis scores for each group, and then statistically processed by t-test to determine statistical significance between each drug administration group and ethanol-treated group.

[3] = tested on: NC/Nga mice manifesting atopic dermatitis; assay: Case 2: effects of external use of tacrolimus and dexamethasone on spontaneous itch-evoked scratching behavior in NC/Nga mice; conditions: 0.1% in 100% ethanol, 200 μl applied onto head and dorsal skin; paw movements lasting 1.5 seconds or longer; before application: tacrolimus group 600 ± 64, dexamethasone group 567 ± 77
Description: Experimental animals used were 14-week-old NC/Nga male mice, each weighing about 30 g and manifesting atopic dermatitis, and were divided into groups of 6 mice each.
To perform this test, a commercially available itch measuring system (product of Neuroscience) was used. After magnets for scratch measurement were inserted into both hind paws of each of the above animals, the animals were individually placed in a measurement cage and measured for the number of scratchings over 24 hours (the value before drug application). Then, 200 μl each of 0.1% tacrolimus (Fujisawa Pharmaceutical Co., Ltd.) and dexamethasone (Wako Pure Chemical Industries, Ltd.) dissolved in 100% ethanol were applied onto the head and dorsal skin, followed by recording again the number of scratchings over 24 hours (the value after drug application). The control group received 100% ethanol alone. The results obtained were processed to score itch-evoked scratching behavior, assuming that each paw movement lasting 1.5 seconds or longer was counted as one scratch reflex, followed by statistical analysis to determine statistical significance between the values before and after drug application.

[4] = tested on: NC/Nga mice manifesting atopic dermatitis; assay: Test Example 1: effect on the spontaneous, itch-evoked scratching behavior of NC mice; conditions: for % Occurrence of scratching behavior: 0.1% in 100% ethanol, 0.2 ml/mouse on dorsal skin, count before drug application set to 100%, scratchings 1.5 seconds or longer, N = 6
Description: Twenty-week-old NC/Nga mice each weighing about 30 g and manifesting atopic dermatitis were purchased from SLC and subjected to the following experiment. A magnet was buried in both hind paws of each mouse and by detecting its magnetism, the movement of the paws was measured with an itch measuring system (product of Neuroscience). Among the scratching actions, those lasting 1.5 seconds or longer were considered itch-evoked and their number was counted continuously. […] Since there was a wide range of variation among individual animals, the experimental data was scored assuming that the initial count before drug application was set to 100%. The same test was repeated using 100% ethanol as a control and dexamethasone (a steroid; Wako Pure Chemical Industries, Ltd.) and tacrolimus (an immunosuppressive; Fujisawa Pharmaceutical Co., Ltd.) as comparative drugs.

[5] = concentration 0.01% in 100% ethanol, 0.2 ml/mouse on dorsal skin
[6] = concentration 0.1% in 100% ethanol, 0.2 ml/mouse on dorsal skin
[7] = external application of 0.1%, same extent as dexamethasone and tacrolimus

In the case of `CC#CCC(C)[C@H](O)/C=C/[C@@H]1[C@H]2c3cccc(CCCC(=O)O)c3O[C@H]2C[C@H]1O` (mixture of isomers) [Beraprost, beraprost], the “% Inhibition (percent itch suppression)” value [1, 5] is reported as 45.6%, the “% Inhibition (percent itch suppression)” value [1, 6] is reported as 56.9% and the “effect on dermatitis scores compared to the ethanol-treated group” value [2] is reported as “significant suppressive effect”.
For `CN(C)CCC(c1ccc(Cl)cc1)c1ccccn1` (centres unmarked) [Chlorpheniramine, chlorpheniramine maleate], the “% Inhibition (percent itch suppression)” value ([1]; 10 mg/kg, p.o.) was 3.56% and the “suppression of spontaneous itch-evoked scratching behavior (in words)” value ([1]; administered orally, 10 mg/kg) was “no suppression”.
With `C[C@@H]1C[C@H]2[C@@H]3CCC4=CC(=O)C=C[C@]4(C)[C@@]3(F)[C@@H](O)C[C@]2(C)[C@@]1(O)C(=O)CO` [Dexamethasone, dexamethasone] the “number of scratchings over 24 hours, after drug application” value [3] was 286 ± 52, the “% Occurrence of scratching behavior” value [4] was 50 ± 9 % and the “% Inhibition (percent itch suppression)” value [1, 6] was 49.5%.
For `CCCC[C@H](C)C[C@H](O)/C=C/[C@H]1[C@H](O)CC(=O)[C@@H]1CCCC/C=C/C(=O)O` [Limaprost, limaprost], the “% Inhibition (percent itch suppression)” value ([1]; concentration 0.001% in 100% ethanol, 0.2 ml/mouse on dorsal skin) was 36.2%, the “% Inhibition (percent itch suppression)” value [1, 5] was 79.9% and the “effect on dermatitis scores compared to the ethanol-treated group” value [2] was “significant suppressive effect”.
For `CCCCC[C@H](O)/C=C/[C@H]1C(=O)C[C@H](O)[C@@H]1C/C=C\CCCC(=O)O` [PGD2, prostaglandin D2], the “% Inhibition (percent itch suppression)” value [1, 5] was 56.3%.
With `CCCCC[C@H](O)/C=C/[C@H]1[C@H](O)CC(=O)[C@@H]1C/C=C\CCCC(=O)O` [PGE2, prostaglandin E2] the “% Occurrence of scratching behavior” value [4] was 46 ± 10 %, the “effect on spontaneous itch-evoked scratching behavior (in words)” value [4, 7] was “strongly reduced” and the “% Inhibition (percent itch suppression)” value [1, 6] was 54.3%. For the same molecule, the “effect on spontaneous itch-evoked scratching behavior in NC mice (in words)” value [1, 7] was “strongly reduced”.
With `CS(=O)(=O)NC(=O)CCC/C=C\C[C@H]1C(=O)C[C@@H](O)[C@@H]1/C=C/[C@@H](O)COc1ccccc1` [Sulprostone, sulprostone] the “% Inhibition (percent itch suppression)” value [1, 5] was 24.0%.
With `C=CC[C@@H]1/C=C(\C)C[C@H](C)C[C@H](OC)[C@H]2O[C@@](O)(C(=O)C(=O)N3CCCC[C@H]3C(=O)O[C@H](/C(C)=C/[C@@H]3CC[C@@H](O)[C@H](OC)C3)[C@H](C)[C@@H](O)CC1=O)[C@H](C)C[C@@H]2OC` [Tacrolimus, tacrolimus] the “number of scratchings over 24 hours, after drug application” value [3] was 267 ± 45, the “% Occurrence of scratching behavior” value [4] was 45 ± 8 % and the “% Inhibition (percent itch suppression)” value [1, 6] was 55.5%.
